Assays:
[1] = tested on: Casp6 (mutant huntingtin cleavage); design: method as in PMID 25616965; conditions: read-out: IC50 against mutant huntingtin cleavage (FRET); cited from earlier work
Caspase-5 = tested on: Caspase-5; design: method as in PMID 25616965; conditions: cited from earlier work
[2] = tested on: Casp6 (VEID-aminoluciferin cleavage); design: method as in PMID 25616965; conditions: read-out: inhibition of cleavage of VEID-aminoluciferin; cited from earlier work
Caspase-3 = tested on: Caspase-3; design: method as in PMID 9092497; conditions: read-out: Michaelis-Menten constant (Km) for Caspase-3; cited from earlier work
recombinant Casp6 = tested on: recombinant Casp6; design: method as in PMID 9092497; conditions: read-out: Michaelis-Menten constant (Km) for recombinant Casp6; cited from earlier work
mammals = conditions: fmk moiety metabolized into fluorocitrate; cited from earlier work
[3] = tested on: APPWT-transfected primary human CNS neurons; test: Neuritic beading/degeneration in APPWT-transfected primary human neurons; assay type: cell-based; conditions: NWL 100 μM, Z-VEID-fmk 5 μM
Method: Immunofluorescence on human neuron cultures: Primary human neurons were pre-treated 2 h and serum-deprived in the presence of 100 μM NWL-117, 100 μM NWL-154, or 5 μM Z-VEID-fmk (Biomol, Plymouth meeting, PA, USA) for 24 h. Following treatment, human neurons were washed once with warm PBS, fixed for 20 min at room temperature with 4% paraformaldehyde (Sigma, Oakville, ON, CA)/4% sucrose (BioRad, Mississauga, ON, CA) for TubΔCasp6 or 2% formaldehyde (Thermo Fisher Scientific, Waltham, MA, USA)/0.2% glutaraldehyde (Sigma, Oakville, ON, CA) for pBudEGFP or pBudEGFP/APP^WT-transfected neurons, incubated in permeabilization buffer (0.1% Triton X-100, 0.1 sodium citrate) for 1 min on ice, washed with PBS, blocked for 20 min at room temperature with 10% goat serum (Sigma, Oakville, ON, CA), and incubated with primary antibodies diluted in 10% goat serum in PBS overnight at 4 °C in a humid chamber. The glass coverslips were washed with PBS, and incubated with goat anti-rabbit secondary antibody coupled to Alexa 488 (Molecular Probes, Eugene, OR, USA) or Cy3 (GE Healthcare Life Sciences, Baie D’Urfe, QC, CA) and Hoechst 33342 (ImmunoChemistry, Bloomington, MN, USA) at 1 μg/mL for 2 h at room temperature. The coverslips were washed with PBS and rinsed in Milli-Q water before mounting in fluoromount (Dako, Burlington, ON, CA). Images were acquired by fluorescence microscopy and quantified using the ImageJ software (NIH, Bethesda, MD, USA) for TubΔCasp6 and manually counted for transfected EGFP(+)-neurons. Time lapse-imaging by live fluorescence microscopy: Primary human neurons were transfected with gold beads coated with pBudEGFP or pBudEGFP/APP^WT using a Helios Gene gun (BioRad, Mississauga, ON, CA). Briefly, cells were pre-treated with 100 μM NWL inhibitors or 5 μM Z-VEID-fmk for 2 h. The media was removed and the neurons were shot at 100 psi. The media was quickly replaced with the inhibitors present. The plasmid was expressed for 16 h before setting up the fluorescence microscope (Nikon Eclipse Ti) to acquire 20 images per condition every hour for 72 h at 37 °C with 5% CO2. The images were analyzed by counting the total number of neurons (50–100 neurons per condition per independent experiment), and the number of beaded, swollen soma, and healthy neurons. In addition, the time at which cells beaded was noted. Phase contrast microscopy: HCT116 cells, plated at a density of 1×10^5 cells/well and human neurons, plated at a density of 6×10^6 cells/well on poly-L-lysine were treated with PBS, 100 μM NWL-117, 100 μM NWL-154, or 2 μM staurosporine (Biomol, Plymouth meeting, PA, USA) for 24 h. Images were acquired with the Nikon Eclipse Ti microscope and the NIS-Elements (Version 3.10) software.

## ED11: 24 amino acid peptide (GRKKRRQRRRPPQSSEIVLDGTDN) containing HIV TAT-peptide and huntingtin sequences; Casp6 inhibitor
[1]
  IC50: 12.1 nM
Caspase-5
  Caspase-5 activity on the FRET assay: significant enhancement
[2]
  IC50: > 10000 nM

## VEID: Val-Glu-Ile-Asp peptide substrate sequence preferred by Casp6 (printed: Val-Glu-Ile-Asp)
Caspase-3
  Km: 250 µM
Recombinant Casp6
  Km: 30 µM

## benzyloxycarbonyl-Val-Glu-Ile-Asp-fmk [Z-VEID-fmk, reference compound]
mammals
  toxicity to mammals: toxic to mammals
[3]; APPWT/EGFP co-expression, 48 h
  neuritic beading: prevented neuritic beading
[3]; live imaging 72 h, APPWT vehicle 1.52, EGFP-alone 1.00, mean ± SEM
  percentage of beaded neurons, fold of EGFP-alone: 0.97 fold

Source: article PMC5329948, “Caspase vinyl sulfone small molecule inhibitors prevent axonal degeneration in human neurons and reverse cognitive impairment in Caspase-6-overexpressing mice” (Molecular Neurodegeneration, 2017)
